Data published in ChEMBL document CHEMBL5244262, “Discovery and optimization of benzenesulfonamides-based hepatitis B virus capsid modulators via contemporary medicinal chemistry strategies” (Eur J Med Chem, 2020).
pEC50, pIC50: −log10 of the molar value. Values belong to the compound of their own block, whether it stands above or below them.

Tests used:
Hepatitis B virus [1] = experiment: Antiviral activity against HBV harboring core protein P25G mutant; assay type: functional, organism-based
Hepatitis B virus [2] = experiment: Antiviral activity against HBV harboring core protein T33S mutant; assay type: functional, organism-based
Hepatitis B virus [3] = experiment: Antiviral activity against HBV harboring core protein T33Q mutant; assay type: functional, organism-based
Hepatitis B virus [4] = experiment: Antiviral activity against HBV harboring core protein T33N mutant; assay type: functional, organism-based
Hepatitis B virus [5] = experiment: Ratio of EC50 for antiviral activity against HBV harboring core protein V124I mutant to EC50 for antiviral activity against HBV harboring wild type core protein; assay type: functional
Hepatitis B virus [6] = experiment: Ratio of EC50 for antiviral activity against HBV harboring core protein V124F mutant to EC50 for antiviral activity against HBV harboring wild type core protein; assay type: functional
Hepatitis B virus [7] = experiment: Ratio of EC50 for antiviral activity against HBV harboring core protein P25S mutant to EC50 for antiviral activity against HBV harboring wild type core protein; assay type: functional
Hepatitis B virus [8] = experiment: Ratio of EC50 for antiviral activity against HBV harboring core protein T33Q mutant to EC50 for antiviral activity against HBV harboring wild type core protein; assay type: functional
Hepatitis B virus [9] = experiment: Antiviral activity against HBV harboring core protein P25S mutant; assay type: functional, organism-based
Hepatitis B virus [10] = experiment: Ratio of EC50 for antiviral activity against HBV harboring core protein T33S mutant to EC50 for antiviral activity against HBV harboring wild type core protein; assay type: functional
Hepatitis B virus [11] = experiment: Antiviral activity against HBV harboring core protein P25A mutant; assay type: functional, organism-based
Hepatitis B virus [12] = experiment: Ratio of EC50 for antiviral activity against HBV harboring core protein T33N mutant to EC50 for antiviral activity against HBV harboring wild type core protein; assay type: functional
Hepatitis B virus [13] = experiment: Antiviral activity against HBV harboring core protein V124F mutant; assay type: functional, organism-based
Hepatitis B virus [14] = experiment: Ratio of EC50 for antiviral activity against HBV harboring core protein P25G mutant to EC50 for antiviral activity against HBV harboring wild type core protein; assay type: functional
Hepatitis B virus [15] = experiment: Ratio of EC50 for antiviral activity against HBV harboring core protein P25A mutant to EC50 for antiviral activity against HBV harboring wild type core protein; assay type: functional
Hepatitis B virus [16] = experiment: Antiviral activity against HBV harboring wild type core protein; assay type: functional, organism-based
Hepatitis B virus [17] = experiment: Antiviral activity against HBV harboring core protein V124I mutant; assay type: functional, organism-based
[18] = Selectivity index, ratio of CC50 for human HePAD38 cells to EC50 for antiviral activity against Hepatitis B virus infected in HePAD38 cells; assay type: toxicity, cell-based; settings: read-out: Ratio CC50/EC50
Hepatitis B virus [19] = experiment: Antiviral activity against Hepatitis B virus harboring rtL180M/M204V/N236T transfected in HepG2 cells; assay type: functional, organism-based
Hepatitis B virus [20] = experiment: Antiviral activity against Hepatitis B virus harboring rtA181V/N236T transfected in HepG2 cells; assay type: functional, organism-based
Hepatitis B virus [21] = experiment: Antiviral activity against Hepatitis B virus infected in HePAD38 cells; assay type: functional, organism-based
Hepatitis B virus [22] = experiment: Antiviral activity against Hepatitis B virus harboring rtN236T transfected in HepG2 cells; assay type: functional, organism-based
Hepatitis B virus [23] = experiment: Antiviral activity against Hepatitis B virus harboring rtL180M/M204V transfected in HepG2 cells; assay type: functional, organism-based
[24] = Cytotoxicity against human HePAD38 cells; assay type: toxicity, cell-based
[25] = Oral bioavailability in mouse; assay type: ADME, organism-based; settings: in vivo
Hepatitis B virus [26] = experiment: Antiviral activity against Hepatitis B virus infected in HepG2.2.15 cells; assay type: functional, organism-based
Hepatitis B virus [27] = experiment: Antiviral activity against Hepatitis B virus harboring rtA181V transfected in HepG2 cells; assay type: functional, organism-based
[28] = Cytotoxicity against human HepG2.2.15 cells; assay type: toxicity, cell-based, HepG2 2.2.15
[29] = Cytotoxicity against human HepDE19 cells; assay type: functional
Hepatitis B virus [30] = experiment: Antiviral activity against Hepatitis B virus infected in primary hepatocytes; assay type: functional, organism-based; settings: Hepatocyte
Hepatitis B virus [31] = experiment: Antiviral activity against Hepatitis B virus infected in HepBHAe82 cells; assay type: functional, organism-based
Hepatitis B virus [32] = experiment: Antiviral activity against Hepatitis B virus infected in AML12HBV10 cells; assay type: functional, organism-based
[33] = Cytotoxicity against mouse AML12HBV10; assay type: toxicity, cell-based; settings: AML12HBV10 cells
Hepatitis B virus [34] = experiment: Antiviral activity against Hepatitis B virus infected in HepDE19 cells; assay type: functional, organism-based
[35] = Cytotoxicity in human primary hepatocytes; assay type: toxicity, cell-based, Hepatocyte
[36] = Cytotoxicity against human HepBHAe82 cells; assay type: toxicity, cell-based
[37] = Cytotoxicity against human HepDES19 cells; assay type: toxicity, cell-based
Hepatitis B virus [38] = experiment: Antiviral activity against Hepatitis B virus infected in HepDES19 cells; assay type: functional, organism-based
[39] = Oral bioavailability in CD1 mouse; assay type: ADME, organism-based; settings: in vivo
Hepatitis B virus [40] = experiment: Antiviral activity against Hepatitis B virus infected in HePAD38 cells assessed as reduction in HBeAg production; assay type: functional, organism-based
[41] = Half life in dog plasma; assay type: ADME, cell-free, Canis lupus familiaris
[42] = Half life in human plasma; assay type: ADME, cell-free
[43] = Half life in mouse plasma; assay type: ADME, cell-free
Hepatitis B virus [44] = experiment: Antiviral activity against Hepatitis B virus assessed as inhibition of nucleocapsid assembly; assay type: functional, organism-based

SMILES: COC(=O)C1=C(CN2CC(F)(F)C[C@H]2C(=O)O)NC(c2nccs2)=N[C@H]1c1ccc(F)cc1Cl
pEC50 (Hepatitis B virus [1]): 5.86
pEC50 (Hepatitis B virus [2]): 6.79
pEC50 (Hepatitis B virus [3]): 5.71
pEC50 (Hepatitis B virus [4]): 5.46
Ratio (Hepatitis B virus [5]): 0.1
Ratio (Hepatitis B virus [6]): 11.9
Ratio (Hepatitis B virus [7]): 9.9
Ratio (Hepatitis B virus [8]): 21.7
pEC50 (Hepatitis B virus [9]): 6.04
Ratio (Hepatitis B virus [10]): 1.8
pEC50 (Hepatitis B virus [11]): 6.13
Ratio (Hepatitis B virus [12]): 38.1
pEC50 (Hepatitis B virus [13]): 5.96
Ratio (Hepatitis B virus [14]): 15.2
Ratio (Hepatitis B virus [15]): 8.1
pEC50 (Hepatitis B virus [16]): 7.04
pEC50 (Hepatitis B virus [17]): 8.05

SMILES: O=C(Nc1cc(F)c(F)c(F)c1)c1ccc(F)c(S(=O)(=O)N2CCC(O)CC2)c1
pEC50 (Hepatitis B virus [1]): 5.32
pEC50 (Hepatitis B virus [2]): 6.06
selectivity ratio [18]: 15.6
pEC50 (Hepatitis B virus [19]): 6.09
pEC50 (Hepatitis B virus [20]): 6.09
pEC50 (Hepatitis B virus [3]): < 5.30
pEC50 (Hepatitis B virus [4]): < 5.30
Ratio (Hepatitis B virus [5]): 0.1
Ratio (Hepatitis B virus [6]): 0.7
pEC50 (Hepatitis B virus [21]): 6.48
pEC50 (Hepatitis B virus [22]): 6.09
Ratio (Hepatitis B virus [7]): 2.4
Ratio (Hepatitis B virus [8]): >13
pEC50 (Hepatitis B virus [23]): 6.09
pEC50 (Hepatitis B virus [9]): 6.03
Ratio (Hepatitis B virus [10]): 2.3
CC50 [24]: 5140 nM
pEC50 (Hepatitis B virus [11]): 6.05
Ratio (Hepatitis B virus [12]): >13
bioavailability [25]: ≥ 84.6%
pEC50 (Hepatitis B virus [13]): 6.54
Ratio (Hepatitis B virus [14]): 12.2
Ratio (Hepatitis B virus [15]): 2.3
pEC50 (Hepatitis B virus [16]): 6.41
pEC50 (Hepatitis B virus [17]): 7.38
pEC50 (Hepatitis B virus [26]): 6.40
pEC50 (Hepatitis B virus [27]): 6.09

SMILES: O=C(Nc1cc(F)c(F)c(F)c1)c1ccc(F)c(S(=O)(=O)N2C[C@H]3CC[C@@H]2CC3O)c1 (stereo partly specified)
selectivity ratio [18]: 30.5
pEC50 (Hepatitis B virus [21]): 6.46
CC50 [24]: 10700 nM

SMILES: O=C1CC2CN(S(=O)(=O)c3cc(C(=O)Nc4cc(F)c(F)c(F)c4)ccc3F)CC2C1 (stereo unspecified)
selectivity ratio [18]: 48
pEC50 (Hepatitis B virus [21]): 6.41
CC50 [24]: 18700 nM

SMILES: CC(NS(=O)(=O)c1c2ncccc2c(C(=O)Nc2ccc(F)c(F)c2)n1C)C(F)(F)F (stereo unspecified)
CC50 [28]: > 30000 nM
pIC50 (Hepatitis B virus [44]): > 6.00
pEC50 (Hepatitis B virus [26]): 10.00

SMILES: O=C(Nc1cc(F)c(F)c(F)c1)c1ccc(F)c(S(=O)(=O)NC2CCC(O)CC2)c1 (stereo unspecified)
selectivity ratio [18]: 42.7
pEC50 (Hepatitis B virus [21]): 6.60
CC50 [24]: 10700 nM

SMILES: COC(=O)C1=C(C)NC(c2ncc(F)cc2F)=N[C@H]1c1ccc(F)cc1Cl
pEC50 (Hepatitis B virus [1]): < 5.00
pEC50 (Hepatitis B virus [2]): 6.35
pEC50 (Hepatitis B virus [3]): 5.43
pEC50 (Hepatitis B virus [4]): < 5.00
Ratio (Hepatitis B virus [5]): 0.09
Ratio (Hepatitis B virus [6]): 15.7
Ratio (Hepatitis B virus [7]): 28.7
Ratio (Hepatitis B virus [8]): 25
pEC50 (Hepatitis B virus [9]): 5.37
Ratio (Hepatitis B virus [10]): 3
pEC50 (Hepatitis B virus [11]): 5.46
Ratio (Hepatitis B virus [12]): >67
pEC50 (Hepatitis B virus [13]): 5.63
Ratio (Hepatitis B virus [14]): >67
Ratio (Hepatitis B virus [15]): 23.2
pEC50 (Hepatitis B virus [16]): 6.83
pEC50 (Hepatitis B virus [17]): 7.89

More lines, main results first:

pEC50 (Hepatitis B virus [31]): 7.10
EC90 (Hepatitis B virus [31]): 330 nM
pEC50 (Hepatitis B virus [32]): 7.10
EC90 (Hepatitis B virus [32]): 330 nM
pEC50 (Hepatitis B virus [34]): 7.10
EC90 (Hepatitis B virus [34]): 330 nM
pEC50 (Hepatitis B virus [26]): 7.10
EC90 (Hepatitis B virus [26]): 330 nM
SMILES: CC[C@@H](C)NS(=O)(=O)c1ccc(F)c(C(=O)Nc2ccc(F)c(F)c2)c1
CC50 [28]: > 10000 nM
CC50 [29]: > 10000 nM
pEC50 (Hepatitis B virus [30]): 7.10
EC90 (Hepatitis B virus [30]): 330 nM
CC50 [33]: > 10000 nM
CC50 [35]: > 10000 nM
CC50 [36]: > 10000 nM

pIC50 (Hepatitis B virus [32]): 6.52
pIC50 (Hepatitis B virus [38]): 7.00
SMILES: CCC(C)NS(=O)(=O)c1ccc(F)c(C(=O)Nc2ccc(F)c(F)c2)c1 (stereo unspecified)
CC50 [37]: > 50000 nM
CC50 [33]: > 50000 nM

bioavailability [39]: > 100%
pIC50 (Hepatitis B virus [40]): 8.52
half-life [41]: > 24 h
half-life [42]: > 24 h
half-life [43]: > 24 h
SMILES: C#CCNC(=O)C(=O)c1c(C)c(C(=O)Nc2ccc(F)c(F)c2)n(C)c1C
CC50 [35]: > 10000 nM

pEC50 (Hepatitis B virus [21]): 6.52
SMILES: O=C1CCN(S(=O)(=O)c2cc(C(=O)Nc3cc(F)c(F)c(F)c3)ccc2F)CC1
selectivity ratio [18]: 24.7
CC50 [24]: 7410 nM

pEC50 (Hepatitis B virus [21]): 6.66
SMILES: O=C(Nc1cc(F)c(F)c(F)c1)c1ccc(F)c(S(=O)(=O)N2C[C@H]3CC[C@@H]2CC3=O)c1
selectivity ratio [18]: 33.7
CC50 [24]: 7410 nM

pEC50 (Hepatitis B virus [21]): > 6.00
SMILES: Cn1cc2c(c1C(=O)Nc1cc(F)c(F)c(F)c1)OCC1CN(C(=O)c3ncco3)CC1NS2(=O)=O (stereo unspecified)

pEC50 (Hepatitis B virus [21]): 6.68
SMILES: O=C(Nc1cc(F)c(F)c(F)c1)c1ccc(F)c(S(=O)(=O)N2CCC(=NO)CC2)c1
selectivity ratio [18]: 35.3
CC50 [24]: 7410 nM

pEC50 (Hepatitis B virus [21]): 6.48
SMILES: O=C(Nc1cc(F)c(F)c(F)c1)c1ccc(F)c(S(=O)(=O)N2CC3CC(O)CC3C2)c1 (stereo unspecified)
selectivity ratio [18]: 74.1
CC50 [24]: 22200 nM
